Active and inactive are the calls of the source. The calls are words filed in the database; no cut-off is given here.
Assays:
A2780 [1] = assay: Antiproliferative activity against human A2780 cells assessed as inhibition of cell growth incubated for 72 hrs by MTT assay; type: functional, cell-based; conditions: A2780, 72 h
[2] = molecular target: Signal transducer and activator of transcription 3 (Homo sapiens) (UniProt P40763); assay: Inhibition of STAT3 in human SK-OV-3 cells assessed as downregulation of STAT3 phosphorylation at Ser727 residue incubated for 24 hrs by Western blotting analysis; type: cell-based
Sequence of Signal transducer and activator of transcription 3 (Homo sapiens) (P40763 whole entry): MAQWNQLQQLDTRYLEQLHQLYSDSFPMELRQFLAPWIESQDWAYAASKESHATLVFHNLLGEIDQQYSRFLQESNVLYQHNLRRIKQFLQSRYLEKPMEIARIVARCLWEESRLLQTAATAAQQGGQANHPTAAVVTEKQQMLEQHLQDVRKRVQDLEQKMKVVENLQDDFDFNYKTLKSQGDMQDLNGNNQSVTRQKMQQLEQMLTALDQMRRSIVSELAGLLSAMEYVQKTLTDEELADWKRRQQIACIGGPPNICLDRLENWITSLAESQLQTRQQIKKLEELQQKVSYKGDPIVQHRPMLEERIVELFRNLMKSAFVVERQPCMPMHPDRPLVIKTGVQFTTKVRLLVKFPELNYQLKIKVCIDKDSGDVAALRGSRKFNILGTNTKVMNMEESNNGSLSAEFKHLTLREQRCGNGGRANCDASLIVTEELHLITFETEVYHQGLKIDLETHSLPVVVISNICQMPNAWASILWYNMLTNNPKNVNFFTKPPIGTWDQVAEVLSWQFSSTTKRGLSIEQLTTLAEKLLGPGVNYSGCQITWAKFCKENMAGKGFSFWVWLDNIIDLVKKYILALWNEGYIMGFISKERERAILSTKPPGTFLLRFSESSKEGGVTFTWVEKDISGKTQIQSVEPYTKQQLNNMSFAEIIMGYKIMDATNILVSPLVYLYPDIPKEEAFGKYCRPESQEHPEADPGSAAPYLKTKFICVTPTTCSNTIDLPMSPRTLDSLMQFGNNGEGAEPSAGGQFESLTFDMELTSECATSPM

[3] = molecular target: Signal transducer and activator of transcription 3 (Homo sapiens) (UniProt P40763); assay: Inhibition of STAT3 in human SK-OV-3 cells assessed as downregulation of Mcl-1 expression at 0.1 to 0.4 uM incubated for 24 hrs by Western blotting analysis; type: cell-based; conditions: dose 0.1-0.4 µM
[4] = molecular target: Signal transducer and activator of transcription 3 (Homo sapiens) (UniProt P40763); assay: Inhibition of STAT3 in human SK-OV-3 cells assessed as downregulation of STAT3 phosphorylation at Ser727 residue in nuclei at 0.2 uM incubated for 24 hrs by Hoechst33342 staining based immunofluorescence assay; type: cell-based
A2780 [5] = assay: Induction of cell cycle arrest in human A2780 cells assessed as accumulation of cells at S phase at 0.2 uM incubated for 24 hrs by BrdU staining based flow cytometry (reference value: 51.6 %); type: functional
SK-OV-3 [6] = assay: Induction of cell cycle arrest in human SK-OV-3 cells assessed as reduction of CDK2 expression at 0.8 uM incubated for 24 hrs by flow cytometry (reference value: 94.4 %); type: functional; design: scale not given: the % may be the effect or the level left
A2780 [7] = assay: Induction of cell cycle arrest in human A2780 cells assessed as reduction of CDK4 expression at 0.2 uM incubated for 24 hrs by flow cytometry (reference value: 93.6 %); type: functional; design: scale not given: the % may be the effect or the level left
A2780 [8] = assay: Induction of apoptosis in human A2780 cells assessed as late apoptotic cells at 0.2 uM incubated for 24 hrs by Annexin V-FITC/7-AAD staining based flow cytometry (reference value: 2.1 %); type: functional
A2780 [9] = assay: Induction of apoptosis in human A2780 cells assessed as increase in caspase-8 activity at 0.8 uM incubated for 24 hrs by flow cytometry (reference value: 1.2 %); type: functional
SK-OV-3 [10] = assay: Inhibition of cell migration in human SK-OV-3 cells assessed as downregulation of FAK expression at 0.1 to 0.4 uM incubated for 24 hrs by Western blotting analysis; type: functional, cell-based; conditions: dose 0.1-0.4 µM
[11] = Toxicity in BALB/c mouse xenografted with human SK-OV-3 cells assessed as pathological change in spleen at 2 to 5 mg/kg,ip administrated for 21 consecutive days by hematoxylin and eosin staining based assay; type: organism-based; conditions: in vivo, dose 2-5 mg/kg

IC50 (A2780 [1]): 140 nM
inhibition [2]: Dose-dependent-effect
inhibition [3]: Active
inhibition [4]: Active
Structure (SMILES): CC1=C(O)C(=O)C=C2C1=CC=C1[C@@]2(C)CC[C@@]2(C)[C@@H]3C[C@](C)(C(=O)N4CCNCC4)CC[C@]3(C)CC[C@]12C
Activity (A2780 [5]): 41.7%
Activity (SK-OV-3 [6]): 57.5%
Activity (A2780 [7]): 74.6%
Activity (A2780 [8]): 5.3%
Activity (A2780 [9]): 12%
inhibition (SK-OV-3 [10]): Active
Activity [11]: Non-toxic
